Assay results from US20050009772A1, “Methods and compositions for the treatment of glaucoma and other retinal diseases” (The Regents of the University of California, priority 2003, published 2005).
“Also recorded” adds a separate entry of the source.

What was measured:
retinal ganglion cells = test: 2DG administration in the animal model of glaucoma; type: in vivo; details: animal model of glaucoma employed herein
Method: Lan et al., NeuroReport 14:2369-72 (2003). In the hands of the, present inventors, however, 2DG administration was ineffective in protecting retinal ganglion cells in the animal model of glaucoma employed herein. Thus, confirmation of efficacy in a relevant animal model is required before any actual conclusions can be drawn.
Rats were anesthetized with intramuscular injections of 0.8 ml/kg of the anesthetic cocktail described above. A previously published procedure was modified to produce chronic moderately elevated IOP unilaterally, while the untreated contralateral eye served as the comparative control.40 Animals were injected intracamerally with 10 μl of 35% India ink (Becton Dickinson, Cockeysville, Md.) in 0.01 M PBS after removing a similar volume of aqueous. At the end of the procedure, Tobrex ophthalmic ointment (tobramycin 0.3%; Alcon, Fort Worth, Tex.) was applied topically. Five days after intracameral injection of India ink, a dark band at the limbus was noted due to the aggregation of carbon particles in the trabecular meshwork.38 After anesthesia, approximately 200 laser burns were delivered ab externo to the pigmented trabecular band at laser settings of 200 μm diameter, 200 mW power and 0.2 seconds duration. Three weeks after the first laser treatment, another trabecular laser photocoagulation was performed without further injection of ink.

[1] = system: TUNEL positive cells in the RGCL; test: TUNEL analysis of RGCL after 1 week of IOP elevation (Experiment 3); type: in vivo, rat; details: elevated IOP retinas, 1 week; quercetin = co-administered with GGA
Method: Experiment 3 was performed to investigate the inhibition of apoptosis with GGA administration after 1 week of IOP elevation (n=56).
Rats were anesthetized with intramuscular injections of 0.8 ml/kg of the anesthetic cocktail described above. […] At the end of the procedure, Tobrex ophthalmic ointment (tobramycin 0.3%; Alcon, Fort Worth, Tex.) was applied topically. Five days after intracameral injection of India ink, a dark band at the limbus was noted due to the aggregation of carbon particles in the trabecular meshwork.38 After anesthesia, approximately 200 laser burns were delivered ab externo to the pigmented trabecular band at laser settings of 200 μm diameter, 200 mW power and 0.2 seconds duration. Three weeks after the first laser treatment, another trabecular laser photocoagulation was performed without further injection of ink.
Four-μm thick paraffin embedded sections along the vertical meridian of the optic nerve head were collected and a minimum of 6 retinal sections (8 μm apart) per eyeball was used for counting the number of TUNEL positive cells in the RGCL. Only full length and undamaged retinal sections without oblique orientation were used. The procedures described in the ApopTag Peroxidase In Situ Apoptosis Detection Kit (Intergen Co., Purchase, N.Y.) were followed and diaminobenzidine (Sigma, St. Louis, Mo.) was used as a color substrate. Counting was performed by two masked investigators with light microscopy, and averaged.

[2] = system: retinal ganglion cells (RGCs); test: Density of DTMR-labeled RGCs in rat glaucoma model (Experiment 2); type: in vivo; details: retinas with IOP elevation, 5 weeks; quercetin = co-administered with GGA
Method: GGA was then given twice a week at the same dose until euthanasia. Sustained elevation of intraocular pressure (IOP) was maintained by performing trabecular laser photocoagulation three weeks after the first photocoagulation. […] IOP and body weight were measured once a week. […] Rats were anesthetized with intramuscular injections of 0.8 ml/kg of the anesthetic cocktail described above. A previously published procedure was modified to produce chronic moderately elevated IOP unilaterally, while the untreated contralateral eye served as the comparative control.40 Animals were injected intracamerally with 10 μl of 35% India ink (Becton Dickinson, Cockeysville, Md.) in 0.01 M PBS after removing a similar volume of aqueous. At the end of the procedure, Tobrex ophthalmic ointment (tobramycin 0.3%; Alcon, Fort Worth, Tex.) was applied topically. Five days after intracameral injection of India ink, a dark band at the limbus was noted due to the aggregation of carbon particles in the trabecular meshwork.38 After anesthesia, approximately 200 laser burns were delivered ab externo to the pigmented trabecular band at laser settings of 200 μm diameter, 200 mW power and 0.2 seconds duration. Three weeks after the first laser treatment, another trabecular laser photocoagulation was performed without further injection of ink. […] A cross section of the optic nerve was made with the needle knife through the opening of the optic nerve sheath, with care not to damage the adjacent blood supply. DTMR crystals were applied to the proximal cut surface of the optic nerve to label RGCs by fast retrograde axonal transport. After euthanasia and enucleation, the retinas were dissected and flattened with four radial cuts (superotemporal, inferotemporal, superonasal, and inferonasal). They were placed with vitreal side up on glass slides, dried in the dark at room temperature overnight and mounted. The retinas were examined with a fluorescence microscope (Axioplan; Carl Zeiss, Oberkochen, Germany) equipped with a filter that permits visualization of rhodamine fluorescence (excitation filter BP 546, barrier filter LP590; Carl Zeiss). The counting of RGCs was conducted by 2 examiners in a masked fashion. […] Each rectangular area measured 0.475 mm×0.362 mm and the total counted area corresponded to approximately 3.1% of each total retinal area. Data are expressed as number of RGCs per mm2.

HSP72 [3] = test: Western blot for HSP72 in enriched RGC fraction after systemic administration of GGA (Experiment 1); type: in vivo, rat; details: GGA 200 mg/kg co-administered with quercetin 4 mg/kg daily i.p., 7 days
Method: Experiment 1 was performed to evaluate the expression of HSP72 and HSC70 in RGCs after systemic administration of GGA with Western blot analysis and immunohistochemistry. For Western blotting, twelve rats were equally divided into 6 groups. Three groups of animals were given intraperitoneal injections of GGA 200 mg/kg daily and were euthanized after 1-, 3- or 7 days of administration of GGA. Three control groups were intraperitoneally administered 1) saline-vehicle daily for 7 days; 2) GGA with 4 mg/kg of quercetin (Sigma, St. Louis, Mo.) daily for 7 days; and 3) untreated animals. Enriched RGC fraction was harvested from 2 retinas of each group and used for Western blot analysis. The same experiment for isolation of RGCs and Western blotting was repeated with the other 2 retinas-from each group.
A solution of 80 mg/mL GGA was prepared in saline (Balanced salt solution; Alcon Laboratories, Inc., Fort Worth, Tex.) and emulsified for one hour in an ultrasonic generator (Branson Ultrasonic Corp., Danbury, Conn.) immediately before administration. Intraperitoneal injections of GGA were given at a dose of 200 mg/kg. Saline-vehicle was prepared and administered in the same fashion in vehicle-treated control groups.
A previously described method was modified to partially purify RGCs from other retinal cells in rat retinas.38 Briefly, two dissected rat retinas from each subgroup were washed in 2.5 ml of calcium- and magnesium-free phosphate buffered saline (PBS) at pH 7.4, and incubated in 1.25 ml of PBS containing 0.5 mg/ml trypsin and 0.01% deoxyribonuclease for 15 minutes at 37° C. This was followed by washing the retinas twice in 2.5 ml of minimal essential medium (MEM) containing 10% (vol/vol) fetal bovine serum. The retinas were subsequently washed in 2.5 ml of MEM twice and dissociated in 3 ml of MEM. The cell suspension was then mixed with 1.5 ml of 30% metrizamide (ICN Biomedicals, Inc., Aurora, Ohio) in MEM to a final concentration of 10 metrizamide. This mixture was then overlaid with 5% metrizamide in MEM, and the gradient was centrifuged at 4500 rpm (HB-4; Sorvall Instruments, Newtown, Conn.) for 25 minutes at 4° C. The cells in the 5% to 10% interface were collected. and washed in 25 ml of cold MEM. The washed cells were pelleted by centrifugation at 250×g for 10 minutes (Juan 3000C centrifuge, Winchester, Va.). The cells were then resuspended in 400 μl of MEM buffer, and the protein concentration in the cell suspension was measured with a bicinchoninic acid (BCA) protein assay kit (Pierce, Rockford, Ill.).
Western blot analysis was performed according to the procedure described by Towbin et al.39 Aliquots of 20 μg of protein from enriched RGCs were separated on a 12% SDS-polyacrylamide minigel (Bio-Rad, Hercules, Calif.) and transferred to the membrane (Immunobilon-P; Millipore Corporation, Bedford, Mass.). The membrane was blocked by incubation in 0.1% Tween-20 in 100 mM Tris-buffered saline containing 10% nonfat dried milk for 1 hour. The membranes were incubated with mouse monoclonal antibody against HSP72 (1:1000; StressGen Biotechnologies Corp., Victoria, British Columbia, Canada) or with rat monoclonal antibody against HSC70 (1:1000; StressGen) overnight and then biotinylated rabbit anti-mouse secondary antibody (1:500; Amersham Pharmacia Biotech, Inc., Piscataway, N.J.) or biotinylated goat anti-rat secondary antibody (1:500; Amersham Pharmacia) for 1 hour. This was followed by incubation with streptavidin-conjugated horseradish peroxidase (1:2000; Amersham Pharmacia) for 40 minutes. The immunoreactive bands were detected by chemiluminescence with an enhanced chemiluminescence Western blot reagent (Amersham Pharmacia).

HSP72 [4] = test: Quantitative immunohistochemical analysis of HSP72 in the RGCL after 1 week of IOP elevation (Experiment 3); type: in vivo, rat; details: quercetin = co-administered with GGA
Method: TdT-mediated biotin-dUTP nick end labeling (TUNEL) and immunohistochemical analysis for HSP72 and HSC70 were performed.
Animals were deeply anesthetized with intramuscular injections of 0.8 ml/kg of a cocktail of 5 ml ketamine (100 mg/ml), 2.5 ml xylazine (20 mg/ml), 1.0 ml acepromazine (10 mg/ml), and 1.5 ml normal saline. Then they were transcardially perfused with 4% paraformaldehyde in 0.1 M phosphate buffer. The enucleated eyeballs were immersed in fixative for 1 hour, bisected and post-fixed overnight. The eyes were embedded in paraffin and sectioned at a four-μm thickness along the vertical meridian through the optic nerve head. After deparaffinization and hydration, a species-specific Vectastain ABC kit (Vector Laboratories, Inc., Burlingame, Calif.) was chosen to match the species of primary antibody and the manufacturer's procedures were followed. The tissue sections were incubated with blocking serum solution in PBS for 1 hour. This was followed by incubation with primary antibody at 4° C overnight. The antibodies were mouse monoclonal antibody against HSP72 (1:500; StressGen Biotechnologies Corp., Victoria, British Columbia, Canada), goat polyclonal antibody against HSP72 (1:1000; Santa Cruz Biotechnology, Inc., Santa Cruz, Calif.) or rat monoclonal antibody against HSC70 (1:200; StressGen). Antigen-antibody complexes were detected by an avidin-biotin-peroxidase technique (Vectastain ABC Kit; Vector Laboratories). Diaminobenzidine (DAB) was used to produce a brown color in the target tissue and the slides were permanently mounted. As a negative control, alternate retinal section was incubated with blocking solution by replacing the primary antibody or with anti-rabbit secondary antibody by replacing the original secondary antibody.
Immunohistochemical staining was analyzed quantitatively with a computer-assisted image processing unit (Image-Pro Plus software, Media Cybernetics, Silver Spring, Md.) and the “count-measure” function. Images of immuno-stained sections were captured with a digital camera (Cool snap, RS Photometric, Tucson, Ariz.) attached to the microscope (Axio plan, Carl Zeiss, Oberkochen, Germany) at 630× magnification under oil immersion. The system was calibrated according to the supplier's manual before the analysis. For each digital image, all individual cells in the RGCL were marked by a masked examiner and the optical density of each cell was measured. The relative intensities of cells in the RGCL were measured and averaged (±SEM) to yield a single value representing one retina.

Row | SMILES | protection of retinal ganglion cells (retinal ganglion cells) | effect on number of TUNEL positive cells (in words) [1] | effect on density of DTMR-labeled RGCs (in words) [2] | expression of HSP72 in RGCs (immunoblot) (HSP72 [3]) | HSP72 expression (immunoreactive intensity) in the RGCL (HSP72 [4]; control (normal IOP) retinas vs vehicle-alone controls) | HSP72 expression (immunoreactive intensity) in the RGCL (HSP72 [4]; retinas with IOP elevation, 1 week)
1 | OCC1OC(O)CC(O)C1O [2DG, 2-deoxy-D-gluycose] | ineffective |  |  |  |  | 
2 | O=c1c(O)c(-c2ccc(O)c(O)c2)oc2cc(O)cc(O)c12 [quercetin] |  | reversed | abolished the protective effect | inhibited | abolished; also recorded: diminished | significantly reduced; also recorded: abolished
